Our source for the IC50 values is patent US11420970B1 (NOVARTIS AG, priority 2019, dated 2022).

In assay [1] the test system is cellular H3K36me2 level in thyroid carcinoma cell line CGTH-W-1 (NSD2 E1099K). Briefly: H3K36me2 cellular ELISA assay in CGTH-W-1 line. In kind it is cell-based. The following applies: Homo sapiens, CGTH-W-1, 72 h, read-out: H3K36me2 ELISA in CGTH-W-1. The gist of the method: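 After 72 h compound treatment of NSD2 E1099K-mutant CGTH-W-1 cells, H3K36me2 and total H3 were quantified by ELISA with chemiluminescent read-out. A parallel-seeded plate gave cell viability by CellTiter-Glo.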
For orientation: In an ELISA, binding on a coated surface is turned into a signal by an enzyme label.

Assay [2] relates to cellular H3K36me2 level in multiple myeloma cell line KMS11 (t(4;14)+). The assay can be described thus: H3K36me2 cellular ELISA assay in KMS11-Par line. In kind it is cell-based. The following applies: Homo sapiens, KMS-11, ELISA, read-out: H3K36me2 ELISA in KMS11-Par. The gist of the method:
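After 72 h compound exposure, HCl-extracted histones from KMS11 (t(4;14)+) cells were probed by ELISA for H3K36me2 against total H3 with a chemiluminescence read-out. Cells were plated at 1,250/well in Opti-MEM plus B-27 and N2 the day before. A parallel CellTiter-Glo plate tracked viability.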

Another assay concerns the target NSD2 [1-1365] (Homo sapiens (Human), UniProt O96028). The assay can be described thus: LC-MS/MS-based NSD2 enzymatic assay (SAH production). In kind it is biochemical. The note with it: read-out: NSD2 IC50. The gist of the method:
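SAH formed was measured by LC-MS/MS using d4-SAH as internal standard and an SAH calibration curve. Compounds were preincubated 20 min with NSD2 [1-1365] and SAM; mouse-liver nucleosome then started a 90 min room-temperature reaction (8 nM enzyme, 1 μM SAM, 400 nM nucleosome final, pH 8.0), stopped with TFA.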

Setting [3] is: KMS11-Par line (t(4;14)+), 72 hours treatment.
[4] abbreviates: NSD2 biochemical activity, class symbols.

Like-named read-outs stand apart in the source and are kept apart here.

NSD2 [1-1365], sequence (O96028 whole entry): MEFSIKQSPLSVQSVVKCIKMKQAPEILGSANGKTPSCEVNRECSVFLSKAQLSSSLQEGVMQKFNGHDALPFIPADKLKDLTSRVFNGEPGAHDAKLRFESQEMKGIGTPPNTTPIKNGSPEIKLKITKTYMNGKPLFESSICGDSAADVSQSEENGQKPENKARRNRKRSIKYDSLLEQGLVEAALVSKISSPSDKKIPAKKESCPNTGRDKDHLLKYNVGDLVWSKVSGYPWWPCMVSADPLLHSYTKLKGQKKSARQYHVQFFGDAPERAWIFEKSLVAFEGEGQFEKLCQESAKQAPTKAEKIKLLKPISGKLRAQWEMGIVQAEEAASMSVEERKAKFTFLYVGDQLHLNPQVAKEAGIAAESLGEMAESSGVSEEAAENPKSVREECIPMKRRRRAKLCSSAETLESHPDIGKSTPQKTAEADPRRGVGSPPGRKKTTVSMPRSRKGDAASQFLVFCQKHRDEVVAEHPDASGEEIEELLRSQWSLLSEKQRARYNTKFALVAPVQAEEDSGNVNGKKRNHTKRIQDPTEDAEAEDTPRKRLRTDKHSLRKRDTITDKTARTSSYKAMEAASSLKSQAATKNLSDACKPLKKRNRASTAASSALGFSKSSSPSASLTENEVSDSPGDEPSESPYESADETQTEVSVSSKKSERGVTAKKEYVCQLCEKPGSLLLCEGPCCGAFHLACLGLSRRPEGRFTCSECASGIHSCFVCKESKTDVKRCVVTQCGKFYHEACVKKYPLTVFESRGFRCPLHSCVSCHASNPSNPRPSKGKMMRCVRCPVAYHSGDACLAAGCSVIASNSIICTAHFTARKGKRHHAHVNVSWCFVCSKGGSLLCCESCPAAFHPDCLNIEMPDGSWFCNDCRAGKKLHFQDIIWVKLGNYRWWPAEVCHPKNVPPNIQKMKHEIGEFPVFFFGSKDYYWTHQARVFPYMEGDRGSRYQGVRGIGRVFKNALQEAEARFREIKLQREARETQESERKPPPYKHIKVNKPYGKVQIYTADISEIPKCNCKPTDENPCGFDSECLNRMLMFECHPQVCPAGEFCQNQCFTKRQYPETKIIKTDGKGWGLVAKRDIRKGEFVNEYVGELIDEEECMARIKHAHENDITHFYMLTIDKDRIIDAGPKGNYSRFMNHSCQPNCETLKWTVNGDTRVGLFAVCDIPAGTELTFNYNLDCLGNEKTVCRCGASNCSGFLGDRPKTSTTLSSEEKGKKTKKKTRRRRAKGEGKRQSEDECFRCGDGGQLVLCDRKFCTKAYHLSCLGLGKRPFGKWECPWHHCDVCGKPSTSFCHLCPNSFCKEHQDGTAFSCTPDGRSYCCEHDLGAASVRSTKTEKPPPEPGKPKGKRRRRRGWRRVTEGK

Consider `Nc1ncnc2c1ncn2Cc1cc(C2CCCCC2)ncc1N1CCC[C@](N)([C@H](O)C(F)F)C1` [Example 145, (S)-1-((R)-3-amino-1-(4-((6-amino-9H-purin-9-yl)methyl)-6-cyclohexylpyridin-3-yl)piperidin-3-yl)-2,2-difluoroethan-1-ol], for which the figures for the IC50 (in assay [1]; in assay [2] (setting [3]); on NSD2 [1-1365] (setting [4])) were 990 nM, 8110 nM and 10 to 1000 nM, respectively.

Consider `Nc1ncnc2c1ncn2Cc1cc(-c2cc(F)c(F)cc2F)ncc1N1CCC[C@](N)(c2cccc(Cl)n2)C1` [Example 237], for which the IC50 is 825 nM in assay [1]; 2020 nM in assay [2] (KMS11-Par line, 72 hours); 10 to 1000 nM at NSD2 [1-1365].

Turning to `COc1c(F)cc(-c2cc(Cn3cnc4c(N)ncnc43)c(N3CCC[C@](N)(C(O)C(F)F)C3)cn2)cc1F` (stereo in doubt) [Example 164, (R)-1-((R)-3-amino-1-(4-((6-amino-9H-purin-9-yl)methyl)-6-(3,5-difluoro-4-methoxyphenyl)pyridin-3-yl)piperidin-3-yl)-2,2-difluoroethan-1-ol], the figures for the IC50 (in assay [1]; in assay [2] (setting [3]); on NSD2 [1-1365] (setting [4])) were 130 nM, 1060 nM and 1 to 10 nM, respectively.

Consider `COc1ccc(-c2cc(Cn3cnc4c(N)ncnc43)c(N3CCC[C@](N)(c4ccc(F)c(Cl)n4)C3)cn2)cc1` [Example 216, (R)-9-((5-(3-amino-3-(6-chloro-5-fluoropyridin-2-yl)piperidin-1-yl)-2-(4-methoxyphenyl)pyridin-4-yl)methyl)-9H-purin-6-amine], for which the IC50 in assay [1] is 1880 nM; in assay [2] (KMS11-Par line, 72 hours), 2570 nM; at NSD2 [1-1365], 10 to 1000 nM.

`COC1CCC(C(=O)C2(N)CCCN(c3cnc(-c4ccc(F)c(F)c4)cc3Cn3cnc4c(N)ncnc43)C2)C1` (stereo not drawn) [Example 106, (3-amino-1-(4-((6-amino-9H-purin-9-yl)methyl)-6-(3,4-difluorophenyl)pyridin-3-yl)piperidin-3-yl)(3-methoxycyclopentyl)methanone]: the IC50 is 501 nM in assay [1], 1430 nM in assay [2] (setting [3]) and 10 to 1000 nM at NSD2 [1-1365] (setting [4]).

In the case of `Nc1ncnc2c1ncn2Cc1cc(-c2ccc(F)c(F)c2)ncc1N1CCCC(N)(C(=O)N2CCCCC2)C1` (stereo not drawn) [Example 86, (3-amino-1-(4-((6-amino-9H-purin-9-yl)methyl)-6-(3,4-difluorophenyl)pyridin-3-yl)piperidin-3-yl)(piperidin-1-yl)methanone], the IC50 is 8690 nM in assay [1], 33300 nM in assay [2] (setting [3]) and 10 to 1000 nM at NSD2 [1-1365] (setting [4]).

`Nc1ncnc2c1ncn2Cc1cc(-c2ccc(F)c(F)c2)ncc1N1CC[C@@H](O)[C@@H](N)C1` [Example 3, (3S,4R)-3-amino-1-(4-((6-amino-9H-purin-9-yl)methyl)-6-(3,4-difluorophenyl)pyridin-3-yl)piperidin-4-ol]: the IC50 was 8250 nM in assay [1], 33300 nM in assay [2] (setting [3]) and 10 to 1000 nM at NSD2 [1-1365] (setting [4]).

As for `COc1ccc(-c2cc(Cn3cnc4c(N)ncnc43)c(N3CCC[C@](N)([C@H](O)C(F)F)C3)cn2)c(Cl)c1` [Example 168, (S)-1-((R)-3-amino-1-(4-((6-amino-9H-purin-9-yl)methyl)-6-(2-chloro-4-methoxyphenyl)pyridin-3-yl)piperidin-3-yl)-2,2-difluoroethan-1-ol], the IC50 was 997 nM in assay [1]; 4780 nM in assay [2] (KMS11-Par line, 72 hours); 10 to 1000 nM at NSD2 [1-1365].

Consider `COc1ccc(-c2cc(Cn3cnc4c(N)ncnc43)c(N3CCC[C@](N)(c4ccc(F)c(Cl)n4)C3)cn2)cc1F` [Example 188, (R)-9-((5-(3-amino-3-(6-chloro-5-fluoropyridin-2-yl)piperidin-1-yl)-2-(3-fluoro-4-methoxyphenyl)pyridin-4-yl)methyl)-9H-purin-6-amine], for which the IC50 in assay [1] is 1010 nM; in assay [2] (KMS11-Par line, 72 hours), 1910 nM; at NSD2 [1-1365] it was 1 to 10 nM.

Take `Nc1ncnc2c1ncn2Cc1cc(-c2cc(F)c(O)cc2F)ncc1N1CCC[C@](N)([C@H](O)C(F)F)C1` [Example 144, 4-(5-((R)-3-amino-3-((S)-2,2-difluoro-1-hydroxyethyl)piperidin-1-yl)-4-((6-amino-9H-purin-9-yl)methyl)pyridin-2-yl)-2,5-difluorophenol]: the figures for the IC50 (in assay [1]; in assay [2] (setting [3]); at NSD2 [1-1365] (setting [4])) were 2580 nM, 10400 nM and 10 to 1000 nM, respectively.

Consider `Nc1ncnc2c1ncn2Cc1cc(-c2ccc(F)c(F)c2)ncc1N1CCC[C@](N)([C@@H]2COCCO2)C1` [Example 289, 9-((5-((R)-3-amino-3-((R)-1,4-dioxan-2-yl)piperidin-1-yl)-2-(3,4-difluorophenyl)pyridin-4-yl)methyl)-9H-purin-6-amine], for which the IC50 is 492 nM in assay [1]; 2670 nM in assay [2] (KMS11-Par line, 72 hours); 1 to 10 nM on NSD2 [1-1365].

Turning to `Nc1ncnc2c1ncn2Cc1cc(-c2ccc(F)cc2F)ncc1N1CCC[C@](N)([C@H](O)C(F)F)C1` [Example 151, (S)-1-((R)-3-amino-1-(4-((6-amino-9H-purin-9-yl)methyl)-6-(2,4-difluorophenyl)pyridin-3-yl)piperidin-3-yl)-2,2-difluoroethan-1-ol], the IC50 in assay [1] was 842 nM; in assay [2] (setting [3]) it was 4190 nM; at NSD2 [1-1365] (setting [4]) it was 10 to 1000 nM.

With `Nc1ncnc2c1ncn2Cc1cc(-c2ccc(F)c(F)c2)ncc1N1CCC[C@](N)([C@H](F)c2ccccn2)C1` [Example 91, 9-((5-((R)-3-amino-3-((S)-fluoro(pyridin-2-yl)methyl)piperidin-1-yl)-2-(3,4-difluorophenyl)pyridin-4-yl)methyl)-9H-purin-6-amine], the IC50 in assay [1] is 121 nM; in assay [2] (setting [3]), 890 nM; on NSD2 [1-1365] (setting [4]), 1 to 10 nM.

Take `Nc1ncnc2c1ncn2Cc1cc(-c2ccc(OC(F)F)c(F)c2)ncc1N1CCC[C@](N)([C@H](O)C(F)F)C1` [Example 116, (S)-1-((R)-3-amino-1-(4-((6-amino-9H-purin-9-yl)methyl)-6-(4-(difluoromethoxy)-3-fluorophenyl)pyridin-3-yl)piperidin-3-yl)-2,2-difluoroethan-1-ol]: the IC50 in assay [1] is 168 nM; in assay [2] (setting [3]), 1350 nM; at NSD2 [1-1365] (setting [4]), 1 to 10 nM.

Turning to `COc1c(F)cc(-c2cc(Cn3cnc4c(N)ncnc43)c(N3CCC[C@](N)(C(O)C(F)F)C3)cn2)cc1F` (stereo in doubt) [Example 165, (S)-1-((R)-3-amino-1-(4-((6-amino-9H-purin-9-yl)methyl)-6-(3,5-difluoro-4-methoxyphenyl)pyridin-3-yl)piperidin-3-yl)-2,2-difluoroethan-1-ol], the IC50 in assay [1] was 218 nM; in assay [2] (setting [3]), 1080 nM; at NSD2 [1-1365] (setting [4]) it was 1 to 10 nM.

As for `Cc1nc([C@@]2(N)CCCN(c3cnc(-c4ccc(F)cc4)cc3Cn3cnc4c(N)ncnc43)C2)ccc1F` [Example 190, (R)-9-((5-(3-amino-3-(5-fluoro-6-methylpyridin-2-yl)piperidin-1-yl)-2-(4-fluorophenyl)pyridin-4-yl)methyl)-9H-purin-6-amine], the IC50 is 258 nM in assay [1]; 687 nM in assay [2] (KMS11-Par line, 72 hours); 1 to 10 nM on NSD2 [1-1365].

`Nc1ncnc2c1ncn2Cc1cc(-c2ccc(F)c(F)c2)ncc1N1CCC[C@](N)(c2cc(O)cc(Cl)n2)C1` [Example 219, (R)-2-(3-amino-1-(4-((6-amino-9H-purin-9-yl)methyl)-6-(3,4-difluorophenyl)pyridin-3-yl)piperidin-3-yl)-6-chloropyridin-4-ol]: the IC50 in assay [1] is 407 nM; in assay [2] (KMS11-Par line, 72 hours) it was 3450 nM; at NSD2 [1-1365], 1 to 10 nM.

As to `CC[C@H](C)C(=O)[C@@]1(N)CCCN(c2cnc(-c3ccc(F)c(F)c3)cc2Cn2cnc3c(N)ncnc32)C1` [Example 101, (S)-1-((R)-3-amino-1-(4-((6-amino-9H-purin-9-yl)methyl)-6-(3,4-difluorophenyl)pyridin-3-yl)piperidin-3-yl)-2-methylbutan-1-one], the IC50 in assay [1] was 40 nM; in assay [2] (setting [3]), 34 nM; on NSD2 [1-1365] (setting [4]) it was 1 to 10 nM.

For `COc1ccc(-c2cc(Cn3cnc4c(N)ncnc43)c(N3CCC[C@](N)([C@@H](O)C(F)F)C3)cn2)cc1Cl` [Example 121, (R)-1-((R)-3-amino-1-(4-((6-amino-9H-purin-9-yl)methyl)-6-(3-chloro-4-methoxyphenyl)pyridin-3-yl)piperidin-3-yl)-2,2-difluoroethan-1-ol], the IC50 in assay [1] was 683 nM; in assay [2] (setting [3]), 2610 nM; on NSD2 [1-1365] (setting [4]), 1 to 10 nM.

Regarding `Nc1ncnc2c1ncn2Cc1cc(-c2ccc(F)cc2)ncc1N1CCC[C@](N)(c2ccc(F)c(Cl)n2)C1` [Example 221, (R)-9-((5-(3-amino-3-(6-chloro-5-fluoropyridin-2-yl)piperidin-1-yl)-2-(4-fluorophenyl)pyridin-4-yl)methyl)-9H-purin-6-amine], the IC50 was 269 nM in assay [1]; 1290 nM in assay [2] (KMS11-Par line, 72 hours); 1 to 10 nM on NSD2 [1-1365].

Turning to `COc1ccc(Cl)nc1[C@@]1(N)CCCN(c2cnc(-c3ccc(F)c(F)c3)cc2Cn2cnc3c(N)ncnc32)C1` [Example 230, (R)-9-((5-(3-amino-3-(6-chloro-3-methoxypyridin-2-yl)piperidin-1-yl)-2-(3,4-difluorophenyl)pyridin-4-yl)methyl)-9H-purin-6-amine], the IC50 in assay [1] was 1650 nM; in assay [2] (KMS11-Par line, 72 hours), 9980 nM; at NSD2 [1-1365], 10 to 1000 nM.
